PubChem BioAssay (NCI)
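Cells were grown in 96-well plates and exposed to each compound for 48 hours at five concentrations; endpoints were interpolated linearly between bracketing concentrations, or set to the highest concentration if not reached. The concentration for 50% growth inhibition is given as GI50. At the TGI there is no net growth.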

What was measured:
Experiment in all cases: NCI anticancer screen, dose series, 48 h
786-0 renal = system: 786-0 renal
A498 renal = system: A498 renal
A549 NSCLC = system: A549 NSCLC
ACHN renal = system: ACHN renal
BT-549 breast = system: BT-549 breast
CAKI-1 renal = system: CAKI-1 renal
CCRF-CEM leukemia = system: CCRF-CEM leukemia
COLO 205 colon = system: COLO 205 colon
DU-145 prostate = system: DU-145 prostate
EKVX NSCLC = system: EKVX NSCLC
HCC-2998 colon = system: HCC-2998 colon
HCT-116 colon = system: HCT-116 colon
HCT-15 colon = system: HCT-15 colon
HL-60(TB) leukemia = system: HL-60(TB) leukemia
HOP-62 NSCLC = system: HOP-62 NSCLC
HS 578T breast = system: HS 578T breast
HT29 colon = system: HT29 colon
IGROV1 ovarian = system: IGROV1 ovarian
K-562 leukemia = system: K-562 leukemia
KM12 colon = system: KM12 colon
LOX IMVI melanoma = system: LOX IMVI melanoma
M14 melanoma = system: M14 melanoma
MALME-3M melanoma = system: MALME-3M melanoma
MCF7 breast = system: MCF7 breast
MDA-MB-231 breast = system: MDA-MB-231 breast
MDA-MB-435 = system: MDA-MB-435
MOLT-4 leukemia = system: MOLT-4 leukemia
NCI-H226 lung = system: NCI-H226 lung
NCI-H23 lung = system: NCI-H23 lung
NCI-H460 lung = system: NCI-H460 lung
NCI-H522 lung = system: NCI-H522 lung
NCI/ADR-RES ovarian = system: NCI/ADR-RES ovarian
OVCAR-3 ovarian = system: OVCAR-3 ovarian
OVCAR-4 ovarian = system: OVCAR-4 ovarian
OVCAR-5 ovarian = system: OVCAR-5 ovarian
OVCAR-8 ovarian = system: OVCAR-8 ovarian
PC-3 prostate = system: PC-3 prostate
RPMI-8226 leukemia = system: RPMI-8226 leukemia
RXF 393 renal = system: RXF 393 renal
SF-268 CNS = system: SF-268 CNS
SF-295 CNS = system: SF-295 CNS
SF-539 CNS = system: SF-539 CNS
SK-MEL-2 melanoma = system: SK-MEL-2 melanoma
SK-MEL-28 melanoma = system: SK-MEL-28 melanoma
SK-MEL-5 melanoma = system: SK-MEL-5 melanoma
SK-OV-3 ovarian = system: SK-OV-3 ovarian
SN12C renal = system: SN12C renal
SNB-19 CNS = system: SNB-19 CNS
SNB-75 CNS = system: SNB-75 CNS
SR leukemia = system: SR leukemia
SW-620 colon = system: SW-620 colon
T-47D breast = system: T-47D breast
TK-10 renal = system: TK-10 renal
U251 CNS = system: U251 CNS
UACC-257 melanoma = system: UACC-257 melanoma
UACC-62 melanoma = system: UACC-62 melanoma
UO-31 renal = system: UO-31 renal
MDA-N = system: MDA-N

## O=C(/C=C/c1cc([N+](=O)[O-])ccc1Cl)c1ccccc1
786-0 renal
  GI50: 15.2 µM
  TGI: 32 µM
A498 renal
  GI50: 12.8 µM
  TGI: 26.9 µM
A549 NSCLC
  GI50: 22 µM
  TGI: 92.9 µM
ACHN renal
  GI50: 16.4 µM
  TGI: 31.9 µM
BT-549 breast
  GI50: 14.5 µM
  TGI: 27.8 µM
CAKI-1 renal
  GI50: 5.32 µM
  TGI: 31.3 µM
CCRF-CEM leukemia
  GI50: 26.9 µM
  TGI: > 100 µM
COLO 205 colon
  GI50: 23 µM
  TGI: 48.2 µM
DU-145 prostate
  GI50: 14.7 µM
  TGI: 31.2 µM
EKVX NSCLC
  GI50: 13 µM
  TGI: 43.2 µM
HCC-2998 colon
  GI50: 3.3 µM
  TGI: 9.27 µM
HCT-116 colon
  GI50: 1.59 µM
  TGI: 2.93 µM
HCT-15 colon
  GI50: 8 µM
  TGI: 88.2 µM
HL-60(TB) leukemia
  GI50: 32 µM
  TGI: 96.4 µM
HOP-62 NSCLC
  GI50: 25 µM
  TGI: 63.5 µM
HS 578T breast
  GI50: 21.2 µM
  TGI: 61.7 µM
HT29 colon
  GI50: 3.36 µM
  TGI: 19.4 µM
IGROV1 ovarian
  GI50: 4.6 µM
  TGI: 31.7 µM
K-562 leukemia
  GI50: 6.66 µM
  TGI: > 100 µM
KM12 colon
  GI50: 1.8 µM
  TGI: 3.59 µM
LOX IMVI melanoma
  GI50: 2.6 µM
  TGI: 6.79 µM
M14 melanoma
  GI50: 10.2 µM
  TGI: 22.5 µM
MALME-3M melanoma
  GI50: 19.4 µM
  TGI: 44.7 µM
MCF7 breast
  GI50: 2.76 µM
  TGI: 17.4 µM
MDA-MB-231 breast
  GI50: 19.3 µM
  TGI: 70.7 µM
MDA-MB-435
  GI50: 14.2 µM
  TGI: 35.5 µM
MOLT-4 leukemia
  GI50: 21.1 µM
  TGI: > 100 µM
NCI-H226 lung
  GI50: 15.4 µM
  TGI: 59.3 µM
NCI-H23 lung
  GI50: 15.6 µM
  TGI: 36.2 µM
NCI-H460 lung
  GI50: 14.1 µM
  TGI: 33.7 µM
NCI-H522 lung
  GI50: 15 µM
  TGI: 36.8 µM
NCI/ADR-RES ovarian
  GI50: 24.4 µM
  TGI: 91.7 µM
OVCAR-3 ovarian
  GI50: 5.08 µM
  TGI: 16.1 µM
OVCAR-4 ovarian
  GI50: 33.9 µM
  TGI: > 100 µM
OVCAR-5 ovarian
  GI50: 23.5 µM
  TGI: 74.2 µM
OVCAR-8 ovarian
  GI50: 12.2 µM
  TGI: 33.5 µM
PC-3 prostate
  GI50: 24.5 µM
  TGI: 82.9 µM
RPMI-8226 leukemia
  GI50: 3.68 µM
  TGI: 14.6 µM
RXF 393 renal
  GI50: 14.7 µM
  TGI: 28.1 µM
SF-268 CNS
  GI50: 16.9 µM
  TGI: 43.6 µM
SF-295 CNS
  GI50: 15.6 µM
  TGI: 49.6 µM
SF-539 CNS
  GI50: 16.6 µM
  TGI: 32.7 µM
SK-MEL-2 melanoma
  GI50: 24.6 µM
  TGI: 72.3 µM
SK-MEL-28 melanoma
  GI50: 14.3 µM
  TGI: 29 µM
SK-MEL-5 melanoma
  GI50: 15.4 µM
  TGI: 29.3 µM
SK-OV-3 ovarian
  GI50: 39 µM
  TGI: > 100 µM
SN12C renal
  GI50: 19.6 µM
  TGI: 54 µM
SNB-19 CNS
  GI50: 13.3 µM
  TGI: 28.3 µM
SNB-75 CNS
  GI50: 21.7 µM
  TGI: 99.6 µM
SR leukemia
  GI50: 3.54 µM
  TGI: > 100 µM
SW-620 colon
  GI50: 2.05 µM
  TGI: 3.9 µM
T-47D breast
  GI50: 27.9 µM
  TGI: > 100 µM
TK-10 renal
  GI50: 38.2 µM
  TGI: > 100 µM
U251 CNS
  GI50: 2.56 µM
  TGI: 8.04 µM
UACC-257 melanoma
  GI50: 16.2 µM
  TGI: 33.6 µM
UACC-62 melanoma
  GI50: 13.8 µM
  TGI: 32.3 µM
UO-31 renal
  GI50: 11.7 µM
  TGI: 26.4 µM

## CCc1ccc2nc(-c3ccc(O)cc3)sc2c1
A498 renal
  TGI: 34.2 µM
A549 NSCLC
  TGI: 44.9 µM
ACHN renal
  TGI: 38.2 µM
BT-549 breast
  TGI: 31.1 µM
CAKI-1 renal
  TGI: 26.4 µM
COLO 205 colon
  TGI: 28.6 µM
DU-145 prostate
  TGI: 28.9 µM
HCT-116 colon
  TGI: 30.4 µM
HCT-15 colon
  TGI: 29.4 µM
HL-60(TB) leukemia
  TGI: 10.2 µM
HT29 colon
  TGI: 30.2 µM
IGROV1 ovarian
  TGI: 29.4 µM
K-562 leukemia
  TGI: 54.5 µM
KM12 colon
  TGI: 32.7 µM
LOX IMVI melanoma
  TGI: 33.6 µM
M14 melanoma
  TGI: 35.5 µM
MALME-3M melanoma
  TGI: 36.8 µM
MCF7 breast
  TGI: 46.4 µM
MDA-MB-231 breast
  TGI: 29.9 µM
MDA-MB-435
  TGI: 39.5 µM
MDA-N
  TGI: 36 µM
MOLT-4 leukemia
  TGI: 40.8 µM
NCI-H226 lung
  TGI: 30.1 µM
NCI-H23 lung
  TGI: 34.1 µM
NCI-H460 lung
  TGI: 41.3 µM
NCI-H522 lung
  TGI: 18.3 µM
NCI/ADR-RES ovarian
  TGI: 32.9 µM
OVCAR-3 ovarian
  TGI: 28.1 µM
OVCAR-5 ovarian
  TGI: 28.6 µM
OVCAR-8 ovarian
  TGI: 38.9 µM
PC-3 prostate
  TGI: 29 µM
RPMI-8226 leukemia
  TGI: 35.3 µM
SF-268 CNS
  TGI: 37.8 µM
SF-295 CNS
  TGI: 30.6 µM
SF-539 CNS
  TGI: 27.8 µM
SK-MEL-2 melanoma
  TGI: 31.9 µM
SK-MEL-5 melanoma
  TGI: 34.6 µM
SK-OV-3 ovarian
  TGI: 32.3 µM
SN12C renal
  TGI: 27.7 µM
SNB-19 CNS
  TGI: 35.5 µM
SW-620 colon
  TGI: 38 µM
TK-10 renal
  TGI: 35.7 µM
U251 CNS
  TGI: 33.6 µM
UACC-257 melanoma
  TGI: 35.7 µM
UACC-62 melanoma
  TGI: 25.1 µM
UO-31 renal
  TGI: 24.4 µM

## N#C/C(=C\c1cc(Cl)cc(Cl)c1)c1ccccn1
786-0 renal
  TGI: > 100 µM
A498 renal
  TGI: 8.25 µM
A549 NSCLC
  TGI: > 100 µM
ACHN renal
  TGI: > 100 µM
BT-549 breast
  TGI: 48.7 µM
CAKI-1 renal
  TGI: > 100 µM
CCRF-CEM leukemia
  TGI: > 100 µM
COLO 205 colon
  TGI: > 100 µM
DU-145 prostate
  TGI: > 100 µM
EKVX NSCLC
  TGI: 60 µM
HCC-2998 colon
  TGI: > 100 µM
HCT-116 colon
  TGI: > 100 µM
HCT-15 colon
  TGI: > 100 µM
HL-60(TB) leukemia
  TGI: > 100 µM
HOP-62 NSCLC
  TGI: > 100 µM
HT29 colon
  TGI: > 100 µM
IGROV1 ovarian
  TGI: > 100 µM
K-562 leukemia
  TGI: > 100 µM
KM12 colon
  TGI: > 100 µM
M14 melanoma
  TGI: > 100 µM
MALME-3M melanoma
  TGI: > 100 µM
MCF7 breast
  TGI: > 100 µM
MDA-N
  TGI: 40.2 µM
MOLT-4 leukemia
  TGI: > 100 µM
NCI-H226 lung
  TGI: 85.7 µM
NCI-H23 lung
  TGI: > 100 µM
NCI-H460 lung
  TGI: > 100 µM
NCI-H522 lung
  TGI: > 100 µM
NCI/ADR-RES ovarian
  TGI: > 100 µM
OVCAR-3 ovarian
  TGI: > 100 µM
OVCAR-4 ovarian
  TGI: > 100 µM
OVCAR-5 ovarian
  TGI: > 100 µM
OVCAR-8 ovarian
  TGI: > 100 µM
PC-3 prostate
  TGI: > 100 µM
RPMI-8226 leukemia
  TGI: > 100 µM
RXF 393 renal
  TGI: 47.2 µM
SF-268 CNS
  TGI: > 100 µM
SF-295 CNS
  TGI: > 100 µM
SF-539 CNS
  TGI: > 100 µM
SK-MEL-2 melanoma
  TGI: > 100 µM
SK-MEL-28 melanoma
  TGI: > 100 µM
SK-MEL-5 melanoma
  TGI: > 100 µM
SK-OV-3 ovarian
  TGI: > 100 µM
SN12C renal
  TGI: > 100 µM
SNB-19 CNS
  TGI: > 100 µM
SNB-75 CNS
  TGI: 36 µM
SR leukemia
  TGI: > 100 µM
SW-620 colon
  TGI: > 100 µM
TK-10 renal
  TGI: > 100 µM
U251 CNS
  TGI: > 100 µM
UACC-257 melanoma
  TGI: > 100 µM
UACC-62 melanoma
  TGI: > 100 µM
UO-31 renal
  TGI: > 100 µM
